Laboratory results from ChEMBL document CHEMBL5149970 (J Med Chem, 2021).
Calls of active or inactive are those of the source. No cut-off for these calls is given here.

Columns and labels:
EU-1 [1] = experiment: Inhibition of MDM2/XIAP IRES mRNA interaction in human EU-1 cells assessed as induction of MDM2 degradation by measuring fold change in MDM2 protein expression at 1 uM measured after 30 mins by CHX chase assay (reference value: 0.92); type: cell-based
EU-1 [2] = experiment: Inhibition of MDM2/XIAP IRES mRNA interaction in human EU-1 cells assessed as induction of MDM2 degradation by measuring downregulation of MDM2 protein expression at 1 uM measured after 2 to 24 hrs by western blot analysis; type: cell-based; details: time 2-24 hrs
[3] = Antiproliferative activity against human EU-1 cells assessed as inhibition of cell growth incubated for 48 hrs by WST assay; type: functional, cell-based; details: EU-1, 48 h
[4] = Cmax in Sprague-Dawley rat at 10 mg/kg, iv measured for 24 hrs by LC-MS/MS analysis; type: ADME, organism-based; parameters: dose 10 mg/kg, time 24 hrs, route iv; details: in vivo
EU-1 [5] = experiment: Inhibition of MDM2/XIAP IRES mRNA interaction in human EU-1 cells assessed as fold change in p53 protein expression at 1 uM measured after 120 mins by CHX chase assay (reference value: 0.08); type: cell-based
EU-1 [6] = experiment: Inhibition of MDM2/XIAP IRES mRNA interaction in human EU-1 cells assessed as fold change in p53 protein expression at 1 uM measured after 90 mins by CHX chase assay (reference value: 0.13); type: cell-based
CFU-GM = experiment: Inhibition of colony formation in human CFU-GM cells assessed as reduction in colony number and size at 1 uM incubated for 14 days by crystal violet staining based analysis; type: toxicity, cell-based; details: 336 h, time 14 day
EU-1 [7] = experiment: Inhibition of MDM2/XIAP IRES mRNA interaction in human EU-1 cells assessed as induction of MDM2 degradation by measuring fold change in MDM2 protein expression at 1 uM measured after 90 mins by CHX chase assay (reference value: 0.76); type: cell-based
EU-1 [8] = experiment: Inhibition of MDM2/XIAP IRES mRNA interaction in human EU-1 cells assessed as fold change in p53 protein expression at 1 uM measured after 30 mins by CHX chase assay (reference value: 0.38); type: cell-based
EU-1 [9] = experiment: Inhibition of MDM2/XIAP IRES mRNA interaction in human EU-1 cells assessed as induction of MDM2 degradation by measuring downregulation of MDM2 protein expression incubated for 24 hrs by western blot analysis; type: cell-based; details: dose 0.25-2 µM, DDE = dose-dependent effect
EU-1 [10] = experiment: Inhibition of MDM2/XIAP IRES mRNA interaction in human EU-1 cells assessed as increase in PARP cleavage at 1 uM measured after 8 hrs by western blot analysis; type: cell-based
EU-1 [11] = experiment: Inhibition of MDM2/XIAP IRES mRNA interaction in human EU-1 cells assessed as increase in p53 protein expression measured after 24 hrs by western blot analysis; type: cell-based; details: dose 0.25-2 µM, DDE = dose-dependent effect
EU-1 [12] = experiment: Inhibition of MDM2/XIAP IRES mRNA interaction in human EU-1 cells assessed as induction of MDM2 self-ubiquitination at 1 uM measured for 90 mins by immunoprecipitation-western blot analysis; type: cell-based
EU-1 [13] = experiment: Inhibition of MDM2/XIAP IRES mRNA interaction in human EU-1 cells assessed as increase in p53 protein expression at 1 uM measured after 2 to 24 hrs by western blot analysis; type: cell-based; details: time 2-24 hrs
EU-1 [14] = experiment: Inhibition of MDM2/XIAP IRES mRNA interaction in human EU-1 cells assessed as downregulation of XIAP protein expression incubated for 24 hrs by western blot analysis; type: cell-based; details: dose 0.25-2 µM, DDE = dose-dependent effect
[15] = Volume of distribution in Sprague-Dawley rat at 10 mg/kg, iv measured for 24 hrs by LC-MS/MS analysis; type: ADME, organism-based; details: in vivo
EU-1 [16] = details: Homo sapiens, dose 1.0 µM, time 4.0 hrs
[17] = AUC in Sprague-Dawley rat at 25 mg/kg, po measured for 24 hrs by LC-MS/MS analysis; type: ADME, organism-based; parameters: time 24 hrs, dose 25 mg/kg, route po; details: in vivo
LA1-55n = experiment: Inhibition of colony formation in human LA1-55n cells assessed as reduction in colony number and size at 0.25 to 4 uM incubated for 2 weeks by crystal violet staining based analysis; type: functional, cell-based; details: dose 0.25-4 µM
EU-1 [18] = details: Homo sapiens, dose 1.0 µM, time 4.0 hrs; remark: listed apart in the source
EU-1 [19] = experiment: Inhibition of MDM2/XIAP IRES mRNA interaction in human EU-1 cells assessed as downregulation of XIAP protein expression at 1 uM measured after 2 to 24 hrs by western blot analysis; type: cell-based; details: time 2-24 hrs
[20] = Inhibition of colony formation in human BFU-E cells assessed as reduction in colony number and size at 1 uM incubated for 14 days by crystal violet staining based analysis; type: toxicity, cell-based; details: 336 h, time 14 day
[21] = Antiproliferative activity against human EU-3 cells assessed as reduction in cell survival incubated for 48 hrs by WST assay; type: functional, cell-based; details: EU-3, 48 h
EU-1 [22] = experiment: (§1) Inhibition of MDM2/XIAP IRES mRNA interaction in human EU-1 cells assessed as inhibition of XIAP mRNA translation by measuring reduction in state of polyribosome association of XIAP mRNA in cytoplasmic lysate at 1 uM measured after 4 hrs by linear sucrose gradient fractionation based qRT-PCR analysis; type: subcellular; details: Cytoplasm
EU-1 [23] = experiment: Inhibition of MDM2/XIAP IRES mRNA interaction in human EU-1 cells assessed as induction of MDM2 degradation by measuring downregulation of MDM2 protein expression at 1 uM measured after 8 hrs by western blot analysis; type: cell-based
[24] = Antiproliferative activity against human SH-EP1 cells assessed as reduction in cell survival incubated for 48 hrs by WST assay; type: functional, cell-based; details: SH-EP1, 48 h
[25] = AUC in Sprague-Dawley rat at 10 mg/kg, iv measured for 24 hrs by LC-MS/MS analysis; type: ADME, organism-based; parameters: dose 10 mg/kg, time 24 hrs, route iv; details: in vivo
[26] = Antiproliferative activity against human LA1-55n cells assessed as reduction in cell survival incubated for 48 hrs by WST assay; type: functional, cell-based
[27] = Clearance in Sprague-Dawley rat at 10 mg/kg, iv measured for 24 hrs by LC-MS/MS analysis; type: ADME, organism-based; details: in vivo
SH-EP1 = experiment: Inhibition of colony formation in human SH-EP1 cells assessed as reduction in colony number and size at 0.25 to 4 uM incubated for 2 weeks by crystal violet staining based analysis; type: functional, cell-based; details: dose 0.25-4 µM
EU-1 [28] = experiment: Inhibition of MDM2/XIAP IRES mRNA interaction in human EU-1 cells assessed as induction of MDM2 degradation by measuring fold change in MDM2 protein expression at 1 uM measured after 120 mins by CHX chase assay (reference value: 0.69); type: cell-based
EU-1 [29] = experiment: Inhibition of MDM2/XIAP IRES mRNA interaction in human EU-1 cells assessed as induction of MDM2 degradation by measuring fold change in MDM2 protein expression at 1 uM measured after 60 mins by CHX chase assay (reference value: 0.85); type: cell-based
EU-1 [30] = experiment: Inhibition of MDM2/XIAP IRES mRNA interaction in human EU-1 cells assessed as increase in PUMA protein expression at 1 uM measured after 8 hrs by western blot analysis; type: cell-based
NB-1643 = experiment: Inhibition of colony formation in human NB-1643 cells assessed as reduction in colony number and size at 0.25 to 4 uM incubated for 2 weeks by crystal violet staining based analysis; type: functional, cell-based; details: dose 0.25-4 µM
EU-1 [31] = experiment: Inhibition of MDM2/XIAP IRES mRNA interaction in human EU-1 cells assessed as increase in p21 protein expression at 1 uM measured after 8 hrs by western blot analysis; type: cell-based
EU-1 [32] = experiment: Inhibition of MDM2/XIAP IRES mRNA interaction in human EU-1 cells assessed as increase in p53 protein expression at 1 uM measured after 8 hrs by western blot analysis; type: cell-based
EU-1 [33] = experiment: Inhibition of MDM2/XIAP IRES mRNA interaction in human EU-1 cells assessed as increase in caspase-3 cleavage at 1 uM measured after 8 hrs by western blot analysis; type: cell-based
EU-1 [34] = experiment: Inhibition of MDM2/XIAP IRES mRNA interaction in human EU-1 cells assessed as increase in caspase-9 cleavage at 1 uM measured after 8 hrs by western blot analysis; type: cell-based
[35] = Antiproliferative activity against human NB-1643 cells assessed as reduction in cell survival incubated for 48 hrs by WST assay; type: functional, cell-based; details: NB-1643, 48 h
EU-1 [36] = experiment: as §1, with “increase” for “reduction in state of polyribosome association of XIAP mRNA”, “fraction containing translation-inactive complexes, mono ribosomes” for “lysate”; type: subcellular; details: Cytoplasm
[37] = Oral bioavailability in Sprague-Dawley rat at 25 mg/kg measured for 24 hrs by LC-MS/MS analysis; type: ADME, organism-based; details: in vivo
EU-1 [38] = experiment: Inhibition of MDM2/XIAP IRES mRNA interaction in human EU-1 cells assessed as fold change in p53 protein expression at 1 uM measured after 60 mins by CHX chase assay (reference value: 0.19); type: cell-based
[39] = Elimination half life in Sprague-Dawley rat at 10 mg/kg, iv measured for 24 hrs by LC-MS/MS analysis; type: ADME, organism-based; details: in vivo

SMILES: Cc1ccc(NS(=O)(=O)c2ccc3c(c2)C2OCCC2C(c2ccc(C(=O)C(C)C)cc2)N3)cc1C (stereo not drawn)
- fold change (FC) (EU-1 [1]): 0.78
- inhibition (EU-1 [2]): Active
- IC50 [3]: 300 nM
- Cmax [4]: 8200 ng/mL
- fold change (FC) (EU-1 [5]): 1.14
- fold change (FC) (EU-1 [6]): 1.15
- Activity (CFU-GM): Non-Toxic
- fold change (FC) (EU-1 [7]): 0.25
- fold change (FC) (EU-1 [8]): 1.06
- inhibition (EU-1 [9]): Dde
- inhibition (EU-1 [10]): Active
- inhibition (EU-1 [11]): Dde
- inhibition (EU-1 [12]): Active
- inhibition (EU-1 [13]): Active
- inhibition (EU-1 [14]): Dde
- Vd [15]: 2.88 L/kg
- T1/2 (EU-1 [16]): < 1 h
- AUC [17]: 0.71 µg·h/mL
- inhibition (LA1-55n): Active
- T1/2 (EU-1 [18]): > 2 h
- inhibition (EU-1 [19]): Active
- Activity [20]: Non-Toxic
- IC50 [21]: 300 nM
- inhibition (EU-1 [22]): Active
- inhibition (EU-1 [23]): Active
- IC50 [24]: 500 nM
- AUC [25]: 4.75 µg·h/mL
- IC50 [26]: 500 nM
- CL [27]: 2.12 L/h/kg
- inhibition (SH-EP1): Active
- fold change (FC) (EU-1 [28]): 0.13
- fold change (FC) (EU-1 [29]): 0.47
- inhibition (EU-1 [30]): Active
- inhibition (NB-1643): Active
- inhibition (EU-1 [31]): Active
- inhibition (EU-1 [32]): Active
- inhibition (EU-1 [33]): Active
- inhibition (EU-1 [34]): Active
- IC50 [35]: 500 nM
- inhibition (EU-1 [36]): Active
- F [37]: 5.9%
- fold change (FC) (EU-1 [38]): 1.09
- beta t1/2 [39]: 56.4 min
